What was measured:
[1] = molecular target: 3',5'-cyclic-AMP phosphodiesterase 4B (Homo sapiens, UniProt Q07343); assay: Inhibition of human recombinant PDE4B2 expressed in baculovirus expression system using cAMP as substrate incubated for 2 hrs by HTRF assay
[2] = molecular target: Muscarinic acetylcholine receptor M3 (Homo sapiens, UniProt P20309); assay: Displacement of [3H]N-methylscopolamine chloride from human muscarinic M3 receptor incubated for 2 hrs by radioligand binding assay
Trachea = assay: Bronchoconstriction activity in Sprague-Dawley rat trachea assessed as inhibition of carbachol-induced tracheal contraction; type: functional, tissue-based
[3] = Antiinflammatory activity against LPS-stimulated human PBMC cells assessed reduction in TNFalpha level incubated for 18 hrs by ELISA analysis; type: functional, cell-based

Chain of 3',5'-cyclic-AMP phosphodiesterase 4B (Q07343 whole entry): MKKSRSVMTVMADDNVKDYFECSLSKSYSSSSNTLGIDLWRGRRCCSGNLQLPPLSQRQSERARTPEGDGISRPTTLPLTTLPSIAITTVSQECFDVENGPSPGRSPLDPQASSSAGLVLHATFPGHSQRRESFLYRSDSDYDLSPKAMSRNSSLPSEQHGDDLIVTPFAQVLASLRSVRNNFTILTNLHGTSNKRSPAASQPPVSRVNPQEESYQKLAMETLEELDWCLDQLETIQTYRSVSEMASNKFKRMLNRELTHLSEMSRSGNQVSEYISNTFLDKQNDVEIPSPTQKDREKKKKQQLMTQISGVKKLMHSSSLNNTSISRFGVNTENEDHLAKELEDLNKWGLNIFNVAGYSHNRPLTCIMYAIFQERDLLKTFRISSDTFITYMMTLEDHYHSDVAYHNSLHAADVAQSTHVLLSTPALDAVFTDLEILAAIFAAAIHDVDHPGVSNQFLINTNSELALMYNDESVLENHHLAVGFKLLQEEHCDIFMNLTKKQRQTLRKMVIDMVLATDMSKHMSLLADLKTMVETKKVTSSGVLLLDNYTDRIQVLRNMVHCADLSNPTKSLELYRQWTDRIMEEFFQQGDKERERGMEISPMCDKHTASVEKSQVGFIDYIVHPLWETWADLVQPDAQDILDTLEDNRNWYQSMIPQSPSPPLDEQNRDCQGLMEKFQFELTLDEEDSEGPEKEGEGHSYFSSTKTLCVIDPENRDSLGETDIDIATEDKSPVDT
Chain of Muscarinic acetylcholine receptor M3 (P20309 whole entry): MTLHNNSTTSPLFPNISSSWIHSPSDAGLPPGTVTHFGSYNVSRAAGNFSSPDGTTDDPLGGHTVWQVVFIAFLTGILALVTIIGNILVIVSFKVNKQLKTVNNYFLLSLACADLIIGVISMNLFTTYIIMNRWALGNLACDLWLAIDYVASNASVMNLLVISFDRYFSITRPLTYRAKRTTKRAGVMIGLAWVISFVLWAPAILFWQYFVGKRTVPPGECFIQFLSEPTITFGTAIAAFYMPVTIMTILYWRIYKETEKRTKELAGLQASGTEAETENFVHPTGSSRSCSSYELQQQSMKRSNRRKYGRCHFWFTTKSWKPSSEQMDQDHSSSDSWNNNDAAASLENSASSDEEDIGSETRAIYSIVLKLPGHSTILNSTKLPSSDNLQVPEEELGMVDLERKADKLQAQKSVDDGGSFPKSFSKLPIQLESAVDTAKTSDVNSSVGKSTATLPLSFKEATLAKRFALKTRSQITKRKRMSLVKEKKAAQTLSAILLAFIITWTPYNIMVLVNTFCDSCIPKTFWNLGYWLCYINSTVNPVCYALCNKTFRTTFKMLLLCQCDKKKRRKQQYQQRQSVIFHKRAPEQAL

SMILES	IC50 [1]	Ki [2]	IC50 (Trachea; Rattus norvegicus, Sprague-Dawley, Trachea)	IC50 ([3]; Homo sapiens, PBMC, 18 h)	pIC50 (Trachea)	pIC50 ([3]; pbmc)
CS(=O)(=O)N1CCC[C@H]1C(=O)O[C@@H](Cc1c(Cl)c[n+]([O-])cc1Cl)c1ccc(OC(F)F)c(OCC2CC2)c1	0.501 nM					
CN(C)C(=O)c1cccc(S(=O)(=O)N2CCC[C@H]2C(=O)O[C@@H](Cc2c(Cl)c[n+]([O-])cc2Cl)c2ccc(OC(F)F)c(OCC3CC3)c2)c1	0.0398 nM					
COc1cc(C(=O)O[C@@H](Cc2c(Cl)c[n+]([O-])cc2Cl)c2ccc(OC)c(OC)c2)ccc1CNC(C(=O)O[C@H]1CN2CCC1CC2)c1ccccc1 (some centres not stated)	5.01 nM	0.631 nM				
COc1ccc([C@H](Cc2c(Cl)c[n+]([O-])cc2Cl)OC(=O)c2ccc(CNC(C(=O)O[C@H]3CN4CCC3CC4)c3ccccc3)cc2)cc1OC (some centres not stated)	2.51 nM	0.251 nM				
CCOc1cc([C@H](Cc2c(Cl)cncc2Cl)OC(=O)c2ccc(CN[C@@](CO)(C(=O)O[C@H]3CN4CCC3CC4)c3ccccc3)s2)ccc1OC	7.94 nM	3.16 nM				
CCOc1cc([C@@H](Cc2c(Cl)c[n+]([O-])cc2Cl)OC(=O)c2ccc(CN[C@@](CO)(C(=O)O[C@H]3CN4CCC3CC4)c3ccccc3)s2)ccc1OC	6.31 nM	25.1 nM				
CCOc1cc(C(=O)O[C@@H](Cc2c(Cl)c[n+]([O-])cc2Cl)c2ccc(OC)c(OC)c2)ccc1CNC(C(=O)O[C@H]1CN2CCC1CC2)c1ccccc1 (some centres not stated)	7.94 nM	1 nM				
COc1ccc([C@H](Cc2c(Cl)c[n+]([O-])cc2Cl)OC(=O)c2ccc(CNC(C(=O)O[C@H]3CN4CCC3CC4)c3ccccc3)c(OCC3CC3)c2)cc1OC (some centres not stated)	1 nM	2.51 nM				
CCC(NCc1ccc(C(=O)O[C@@H](Cc2c(Cl)c[n+]([O-])cc2Cl)c2ccc(OC)c(OC)c2)s1)(C(=O)O[C@H]1CN2CCC1CC2)c1ccccc1 (stereo in doubt; 2f)	2.51 nM	0.316 nM	25.1 nM	2.51 nM		
CCC(NCc1ccc(C(=O)O[C@@H](Cc2c(Cl)c[n+]([O-])cc2Cl)c2ccc(OC)c(OC)c2)s1)(C(=O)O[C@H]1CN2CCC1CC2)c1ccccc1 (stereo in doubt; 2s)	3.16 nM	3.98 nM				
COCC(NCc1ccc(C(=O)O[C@@H](Cc2c(Cl)c[n+]([O-])cc2Cl)c2ccc(OC)c(OC)c2)s1)(C(=O)O[C@H]1CN2CCC1CC2)c1ccccc1 (stereo in doubt; 4f)	1 nM	3.16 nM				
COCC(NCc1ccc(C(=O)O[C@@H](Cc2c(Cl)c[n+]([O-])cc2Cl)c2ccc(OC)c(OC)c2)s1)(C(=O)O[C@H]1CN2CCC1CC2)c1ccccc1 (stereo in doubt; 4s)	1.58 nM	5.01 nM				
COc1ccc([C@H](Cc2c(Cl)c[n+]([O-])cc2Cl)OC(=O)c2ccc(CNC(CO)(C(=O)O[C@H]3CN4CCC3CC4)c3ccccc3)c(OCC3CC3)c2)cc1OC (stereo in doubt; 9f)	0.501 nM	31.6 nM				
COc1ccc([C@H](Cc2c(Cl)c[n+]([O-])cc2Cl)OC(=O)c2ccc(CNC(CO)(C(=O)O[C@H]3CN4CCC3CC4)c3ccccc3)c(OCC3CC3)c2)cc1OC (stereo in doubt; 9s)	0.794 nM	> 50.1 nM				
COc1ccc([C@H](Cc2c(Cl)c[n+]([O-])cc2Cl)OC(=O)c2ccc(CNC(CO)(C(=O)O[C@H]3CN4CCC3CC4)c3ccccc3)s2)cc1OCC1CC1 (stereo in doubt; 11s)	1.26 nM	0.251 nM			7.8	8.5
